According to patent US11434205B2, “Substituted imidazole carboxylate derivatives and the use thereof” (priority 2018, dated 2022):
Read-outs that look alike come from different tables or passages of the source.

How the values were obtained:
rats [1] = tested on: rats
Description: Adult male Sprague-Dawley rats (250-300 g) were selected for the experiment. […] The anesthesia effects of the compounds were assessed in rats using a LORR assay and a period >30 s was considered as an indicator of general anesthesia. Then the up and down method was used to determine 50% effective dose (ED50). The drugs were administered through the tail vein of rats in a volume of 0.6 mL and at a rate of 0.1 mL/s.

rats [2] = test: Pharmacological characteristics at equivalent doses (2×ED50) in rats; conditions: 2×ED50, tail vein; for Adverse reactions: Red urine (incidence): DMSO solution (DMSO alone 10/10); for Onset time: time of LORR; for Adverse reactions: Tremor (incidence): animals affected/animals
Procedure, shortened: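 Adult male Sprague-Dawley rats (250-300 g, n=8) received each drug at twice its ED50 via tail vein (0.6 mL at 0.1 mL/s). Onset of anesthesia taken as time to LORR.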

[3] = tested on: secretion of cortisol, H295R cell line; test: cells; assay type: cell-based; conditions: for EC50: Homo sapiens, NCI-H295R, read-out: EC50 (Cortisol)
Description: (§1) The Effects of the Compounds on Adrenocortical Function In Vitro Test
(§2) Then secretion of the cortisol and corticosterone in the supernatant, was measured using HPLC-MS/MS method to determine whether the compounds of the present invention had adrenotoxic potential.

[4] = tested on: secretion of corticosterone, H295R cell line; test: cells; assay type: cell-based; conditions: for EC50: Homo sapiens, NCI-H295R, read-out: EC50 (Corticosterone)
Description: as §1, §2

rats [5] = assay type: in vivo, rat; conditions: rats of the MAP/HR figures, 2×ED50, tail vein
rats [6] = test: Loss of righting reflexes (LORR) assay in rats, ED50 by up and down method; assay type: in vivo, rat; conditions: tail vein, class symbols; for ED50: Rattus norvegicus
Procedure, shortened: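 Adult male Sprague-Dawley rats (250-300 g) dosed i.v. via tail vein at 0.1 mL/s. Anesthesia scored as loss of righting reflex lasting >30 s; ED50 derived by up-and-down method.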

rats [7] = assay type: in vivo, rat; conditions: rats of the MAP/HR figures, 2×ED50, tail vein; same value in min
Procedure, shortened: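 Rats implanted with telemetry (left ventricular and abdominal aortic catheters, ECG leads) at least one week before recording; compounds given via lateral tail-vein catheter. MAP and HR sampled every 15 s for 30 min before and after dosing to judge hemodynamic stability.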

rats [8] = conditions: continuous tail vein infusion at 2×MIR, LORR maintained 1 hour
Description: Pharmacological Effects of the Compounds on Continuous Infusion in Rats
Adult male Sprague-Dawley rats with body weight ranging from 250 to 300 gm were selected for continuous infusion test. […] Time to recovery of righting reflex from stopping infusion, and time to fully awake from stopping infusion were recorded.

[9] = H295R cell line, 0.1-10000 nM, HPLC-MS/MS, Table D3

SMILES | Approximate therapeutic index (rats [1]) | Minimal lethal dose (rats [1]) | Righting reflex duration (rats [2]) | Adverse reactions: Red urine (incidence) (rats [2]) | Onset time (rats [2]) | recovery time of the test animals' righting reflex (rats [5]) | ED50 (rats [6]) | recovery time of the test animals' righting reflex (rats [7]) | Adverse reactions: Tremor (incidence) (rats [2]) | Onset time (rats [8]; Table E4) | Recovery time after stopping infusion (rats [8]; Table E4) | Types and incidence of adverse reactions (rats [8]; Table E4) | also measured
CC(OC(=O)c1cncn1[C@H](C)c1ccccc1)C1CO1 (stereo partly drawn) [Compound B20] | >10 | >17 mg/kg | 2.59 ± 0.99 min | Red urine (8/8) | 0.28 ± 0.14 min | 161 s | 0.5 to 1 mg/kg | 2.68 min |  |  |  |  | Cortisol as an indicator to determine the presence of inhibition ([3]; H295R, Table B3): 0; EC50 [3]: > 1000 nM; Corticosterone as an indicator to determine the presence of inhibition ([4]; H295R, Table B3): 0; EC50 [4]: > 1000 nM
C=C=CC(C)OC(=O)c1cncn1[C@H](C)c1ccccc1 (stereo partly drawn) [Compound D22] | >11 | >2 mg/kg | 4.51 ± 1.63 min | urine (8/8) | 0.24 ± 0.07 min | 50 s | 0.1 to 0.5 mg/kg | 0.83 min |  |  |  |  | Adverse reactions: Euphoria (incidence) (rats [2]): Euphoria (1/8), Red; Onset time (rats [8]; Table D4): 3 to 4 min; Recovery time after stopping infusion (rats [8]; Table D4): 14 to 18 min; Types and incidence of adverse reactions (rats [8]; Table D4): Euphoria (2/6), Tremor (4/6)
CC#CC1(OC(=O)c2cncn2[C@H](C)c2ccccc2)COC1 [Compound D39] | >15 | >9 mg/kg | 1.11 ± 0.34 min | urine (8/8) | 0.20 ± 0.05 min | 375 s | 0.5 to 1 mg/kg | 6.25 min |  |  |  |  | Adverse reactions: Hindlimb rigidity (incidence) (rats [2]): Hindlimb rigidity (1/8),; Adverse reactions: Myoclonus (incidence) (rats [2]): Myoclonus (1/8), Red; Cortisol as an indicator to determine the presence of inhibition [3, 9]: 0; EC50 [3]: > 1000 nM; Corticosterone as an indicator to determine the presence of inhibition [4, 9]: 0; EC50 [4]: > 1000 nM
C=CC(C)(C)OC(=O)c1c(F)ncn1[C@H](C)c1ccccc1 [Compound E32] | >30 | >4 mg/kg | 3.86 ± 1.13 min | urine (8/8) | 0.30 ± 0.14 min | 219 s |  | 3.65 min | (3/8), Red | 2 to 3 min | 12 to 16 min | Tremor (2/6), Tongue stretching (3/6) | Sedation duration (mg/kg) (rats [2]): 8.70 ± 2.07; ED50 (mg/kg) (rats [6]): B (B means that the measured ED50 is in the range of 0.10-0.50 mg/kg (excluding 0.10 mg/kg, including 0.50 mg/kg).)
C=C=CC1(OC(=O)c2c(F)ncn2[C@H](C)c2ccccc2)CCC1 [Compound E64] | >40 | >1.5 mg/kg | 2.28 ± 1.28 min | urine (8/8) | 0.31 ± 0.06 min | 149 s | 0.01 to 0.1 mg/kg | 2.48 min | (2/8), Red | 2 to 3 min | 11 to 14 min | No | 
C=C=CC1(SC(=O)c2c(F)ncn2[C@H](C)c2ccccc2)CSC1 [Compound E90] | >30 | >1.5 mg/kg | 1.29 ± 0.64 min | urine (8/8) | 0.50 ± 0.20 min | 85 s | 0.01 to 0.1 mg/kg | 1.42 min | (1/8), Red | 2 to 3 min | 9 to 12 min | Tremor (2/6) | 
CCOC(=O)c1c(Cl)ncn1[C@H](C)c1ccccc1 [Compound E100] | >30 | >12 mg/kg | 1.98 ± 1.85 min | urine (8/8) | 0.60 ± 0.24 min | 110 s |  | 1.83 min | (5/8), Red | 2 to 3 min | 9 to 14 min | Tremor (3/6) | Sedation duration (mg/kg) (rats [2]): 5.82 ± 2.11; ED50 (mg/kg) (rats [6]): B (B means that the measured ED50 is in the range of 0.10-0.50 mg/kg (excluding 0.10 mg/kg, including 0.50 mg/kg).)
CC#CC(C)OC(=O)c1c(Cl)ncn1[C@H](C)c1ccccc1 (stereo partly drawn) [Compound E116] | >16 | >10 mg/kg | 1.18 ± 0.56 min | (8/8) | 0.61 ± 0.23 min | 92 s | 0.5 to 1 mg/kg | 1.53 min |  | 3 to 4 min | 11 to 15 min | Tremor (1/6), Tongue stretching (3/6) | 
CCOC(=O)c1c(Cl)nc(Cl)n1[C@H](C)c1ccccc1 [Compound E129] | >30 | >9 mg/kg | 0.68 ± 0.34 min | urine (8/8) | 0.87 ± 0.26 min | 52 s | 0.1 to 0.5 mg/kg | 0.87 min | (3/8), Red | 3 to 4 min | 8 to 13 min | No | 
C[C@H](c1ccccc1)n1c(Cl)nc(Cl)c1C(=O)OC1CSC1 [Compound E133] | >12 | >10 mg/kg | 2.10 ± 0.86 min | urine (8/8) | 0.25 ± 0.10 min | 138 s | 0.5 to 1 mg/kg | 2.30 min | (4/8), Red | 3 to 4 min | 9 to 12 min | Tremor (4/6) | 
C#CC1(OC(=O)c2c(Cl)nc(Cl)n2[C@H](C)c2ccccc2)COC1 [Compound E148] | >12 | >10 mg/kg | 0.49 ± 0.38 min | urine (8/8) | 0.75 ± 0.24 min | 58 s | 0.5 to 1 mg/kg | 0.97 min | (5/8), Red | 3 to 4 min | 11 to 16 min | Myoclonus (2/6), Tremor (3/6) | 
